In US10307357B2, “Prebiotic oral care compositions containing an alkyl glycoside” (COLGATE-PALMOLIVE COMPANY, priority 2013, dated 2019):

How the values were obtained:
Experiment in all cases: Phenotype microarray metabolic activity
Format in all cases: cell-based
Settings in all cases: control = 1
[1] = tested on: Capnocytophaga sputigena
Experimental: (§1) The extent of metabolic activity of the tested bacteria in the presence of the above-mentioned glycosides after 24 hours and 48 hours was investigated through a high throughput phenotype microarray system (PM) for microbial cells (Biolog Inc.). Each PM can contain up to 95 different biochemical compounds (e.g. glycosides) that may act as substrates for bacteria as well as one negative control, not containing the substrates. Microarray plates were used in which the different wells of each plate were pre-loaded (by the manufacturer, Biolog Inc.) with different glycosides to be tested. Each bacterial species was tested using a separate microarray plate. Thus, a single bacterial species was tested with a variety of glycosides on each particular plate. The microarrays are based on redox technology, using cell respiration as a universal reporter. Active cell respiration results in the reduction of a tetrazolium dye and in the formation of a strong color—for example, when using the tetrazolium dye “Biolog Redox Dye Mix D”, the color changes from transparent/colorless to purple when the dye is reduced. The observation of this color change indicates which of the substrates improve the metabolic activity and health of the cells. Each bacterial species was collected from blood agar plates (incubated for 48 hours anaerobically at 37° C.) and transferred to an IF-0 Base inoculation fluid (Biolog Inc.), which is a nutritionally poor medium. The resulting cell suspension was adjusted to a transmittance of 42% (relative to the transmittance of the base inoculation fluid with no bacterial species present) at 492 nm using a BioRad SmartSpec 3000 Photometer (the adjustment being effected by adding either further inoculation fluid or further bacteria until the transmittance of 42% was achieved). A 1:5 dilution of this suspension was prepared by mixing 3 mL of the 42% transmittance cell suspension with […] of an inoculation fluid (which inoculation fluid was formed by mixing 11.6 mL sterile water, 62.5 mL IF-0 base inoculation fluid and 0.9 mL of the tetrazolium dye “Biolog Redox Dye mix D”), resulting in a final cell density which was equal to 85% transmittance using a BioRad SmartSpec 3000 Photometer. For each of the glycosides tested, the microarray plate (obtained from the supplier (Biolog Inc.) with glycosides already present in the relevant wells in powder form) was directly inoculated with 100 μL/well of this 85% transmittance cell suspension. All plates were incubated in an anaerobic atmosphere at 37° C. Color changes were measured spectrophotometrically at 492 nm (Thermo Scientific Multiskan Ascent) at 24 hrs and 48 hrs using the same plate at both time points. […] After 24 hrs and 48 hrs under continuous shaking in a Multiscan microplate reader, the optical density (OD) of the synthetic medium at 24 hours and 48 hours was measured (using the microplate reader) at a wavelength of 492 nm for each combination of bacterium/glycoside, and for each of their respective controls (i.e. which contained the particular bacterium but no glycosides). […] The experiment was carried out three times for each combination of bacterium with glycosides, with each repeat being carried out on a different day (thus providing three biological replicas). The controls were also carried out three times, as above. The values shown are the average (mean) of the three single values obtained (as detailed above) for each combination of bacterium with glycosides, at 24 hrs and at 48 hrs.

[2] = tested on: Tannerella forsythia
Experimental: as §1

[3] = tested on: Streptococcus mitis
Experimental: as §1

[4] = tested on: Streptococcus salivarius
Experimental: as §1

[5] = tested on: Streptococcus sobrinus
Experimental: as §1

[6] = tested on: Porphyromonas gingivalis
Experimental: as §1

[7] = tested on: Streptococcus gordonii
Experimental: as §1

[8] = tested on: Streptococcus sanguinis
Experimental: as §1

[9] = tested on: Aggregatibacter actinomycetemcomitans
Experimental: as §1

[10] = tested on: Actinomyces naeslundii
Experimental: as §1

[11] = tested on: Prevotella intermedia
Experimental: as §1

[12] = tested on: Streptococcus mutans
Experimental: as §1

[13] = tested on: Veillonella parvula
Experimental: as §1

[14] = tested on: Actinomyces viscosus
Experimental: as §1

[15] = tested on: Fusobacterium nucleatum
Experimental: as §1

`CO[C@H]1O[C@H](CO)[C@H](O)[C@H](O)[C@H]1O` [α-methyl-D-galactoside] was tested, and the “OD 492 nm divided by control (metabolic activity)” value (“OD 492 nm divided by control” for short) ([1]; 24 hrs) was 0.5747, the “OD 492 nm divided by control” value ([1]; 48 hrs) was 0.8435 and the “OD 492 nm divided by control” value ([2]; 24 hrs) was 1.0380. For the same molecule, the “OD 492 nm divided by control” value ([2]; 48 hrs) was 1.1302, the “OD 492 nm divided by control” value ([3]; 24 hrs) was 1.3498 and the “OD 492 nm divided by control” value ([3]; 48 hrs) was 1.3555. The “OD 492 nm divided by control” value ([4]; 24 hrs) was 0.9677, the “OD 492 nm divided by control” value ([4]; 48 hrs) was 0.8829 and the “OD 492 nm divided by control” value ([5]; 24 hrs) was 1.0761. For the same molecule, the “OD 492 nm divided by control” value ([5]; 48 hrs) was 0.9730, the “OD 492 nm divided by control” value ([6]; 24 hrs) was 0.8079 and the “OD 492 nm divided by control” value ([6]; 48 hrs) was 0.8180. For the same molecule, the “OD 492 nm divided by control” value ([7]; 24 hrs) was 0.8960, the “OD 492 nm divided by control” value ([7]; 48 hrs) was 0.8401 and the “OD 492 nm divided by control” value ([8]; 24 hrs) was 1.0198. The “OD 492 nm divided by control” value ([8]; 48 hrs) was 1.1007, the “OD 492 nm divided by control” value ([9]; 24 hrs) was 0.8204 and the “OD 492 nm divided by control” value ([9]; 48 hrs) was 0.7697. The “OD 492 nm divided by control” value ([10]; 24 hrs) was 2.1644, the “OD 492 nm divided by control” value ([10]; 48 hrs) was 2.8156 and the “OD 492 nm divided by control” value ([11]; 24 hrs) was 0.9609. For the same molecule, the “OD 492 nm divided by control” value ([11]; 48 hrs) was 0.9269, the “OD 492 nm divided by control” value ([12]; 24 hrs) was 1.0573 and the “OD 492 nm divided by control” value ([12]; 48 hrs) was 0.9904. The “OD 492 nm divided by control” value ([13]; 24 hrs) was 0.9782, the “OD 492 nm divided by control” value ([13]; 48 hrs) was 1.2054 and the “OD 492 nm divided by control” value ([14]; 24 hrs) was 2.4728. For the same molecule, the “OD 492 nm divided by control” value ([14]; 48 hrs) was 3.3823, the “OD 492 nm divided by control” value ([15]; 24 hrs) was 0.8949 and the “OD 492 nm divided by control” value ([15]; 48 hrs) was 0.8204.

With `CO[C@@H]1O[C@H](CO)[C@H](O)[C@H](O)[C@H]1O` [β-methyl-D-galactoside] the “OD 492 nm divided by control” value ([1]; 24 hrs) was 1.0421, the “OD 492 nm divided by control” value ([1]; 48 hrs) was 1.0860 and the “OD 492 nm divided by control” value ([2]; 24 hrs) was 1.2183. For the same molecule, the “OD 492 nm divided by control” value ([2]; 48 hrs) was 1.8850, the “OD 492 nm divided by control” value ([3]; 24 hrs) was 1.0977 and the “OD 492 nm divided by control” value ([3]; 48 hrs) was 0.9864. The “OD 492 nm divided by control” value ([4]; 24 hrs) was 6.9837, the “OD 492 nm divided by control” value ([4]; 48 hrs) was 6.4661 and the “OD 492 nm divided by control” value ([5]; 24 hrs) was 1.3078. For the same molecule, the “OD 492 nm divided by control” value ([5]; 48 hrs) was 1.3002, the “OD 492 nm divided by control” value ([6]; 24 hrs) was 1.1297 and the “OD 492 nm divided by control” value ([6]; 48 hrs) was 1.8212. For the same molecule, the “OD 492 nm divided by control” value ([7]; 24 hrs) was 1.4834, the “OD 492 nm divided by control” value ([7]; 48 hrs) was 1.8026 and the “OD 492 nm divided by control” value ([8]; 24 hrs) was 1.0434. For the same molecule, the “OD 492 nm divided by control” value ([8]; 48 hrs) was 1.0609, the “OD 492 nm divided by control” value ([9]; 24 hrs) was 0.8310 and the “OD 492 nm divided by control” value ([9]; 48 hrs) was 0.7733. For the same molecule, the “OD 492 nm divided by control” value ([10]; 24 hrs) was 1.5393, the “OD 492 nm divided by control” value ([10]; 48 hrs) was 1.9886 and the “OD 492 nm divided by control” value ([11]; 24 hrs) was 1.0543. For the same molecule, the “OD 492 nm divided by control” value ([11]; 48 hrs) was 1.0046, the “OD 492 nm divided by control” value ([12]; 24 hrs) was 1.1594 and the “OD 492 nm divided by control” value ([12]; 48 hrs) was 1.0780. The “OD 492 nm divided by control” value ([13]; 24 hrs) was 0.8103, the “OD 492 nm divided by control” value ([13]; 48 hrs) was 0.6840 and the “OD 492 nm divided by control” value ([14]; 24 hrs) was 2.8391. The “OD 492 nm divided by control” value ([14]; 48 hrs) was 3.9827, the “OD 492 nm divided by control” value ([15]; 24 hrs) was 0.9051 and the “OD 492 nm divided by control” value ([15]; 48 hrs) was 0.7899.
